In US20210337789A1, “Derivatives of m-Guaiacol, Their Preparation and Their Uses” (Universite de Caen Normandie, priority 2018, published 2021):

What was measured:
Escherichia coli = experiment: Bacterial growth screening on wild-type phenotype strain, E. coli; format: cell-based
Protocol: (§1) The bacterial growth is evaluated by measuring the optical density (DO) at 600 nm using NanoDrop.
(§2) This ratio permits a classification of the molecules in 4 effect levels: • 0=no effect observed; • 1=effect observed only when the molecule is tested pure; • 2=effect observed at several concentrations, but which gradually decreases the dilutions; • 3=strong effect observed at each concentration of molecule tested.
(§3) A screening of molecules of the invention on several wild-type phenotype strains has been carried out.
(§4) The strains initially selected are: • Gram+: Streptococcus equi subsp zooepidemicus and Staphylococcus aureus • Gram−: Escherichia coli, Klebsiella pneumoniae and Stenotrophomonas maltophila.

androgenic receptors = biological target: T1, androgenic receptors (Homo sapiens, UniProt P10275); experiment: Affinity test for androgenic receptors, inhibition of bonding of radioactive marked testosterone; format: binding; settings: 10^−5 M, greater than 50% considered significant, read-out: % of inhibition (average of the two measurements)
T1 sequence (P10275 1-920): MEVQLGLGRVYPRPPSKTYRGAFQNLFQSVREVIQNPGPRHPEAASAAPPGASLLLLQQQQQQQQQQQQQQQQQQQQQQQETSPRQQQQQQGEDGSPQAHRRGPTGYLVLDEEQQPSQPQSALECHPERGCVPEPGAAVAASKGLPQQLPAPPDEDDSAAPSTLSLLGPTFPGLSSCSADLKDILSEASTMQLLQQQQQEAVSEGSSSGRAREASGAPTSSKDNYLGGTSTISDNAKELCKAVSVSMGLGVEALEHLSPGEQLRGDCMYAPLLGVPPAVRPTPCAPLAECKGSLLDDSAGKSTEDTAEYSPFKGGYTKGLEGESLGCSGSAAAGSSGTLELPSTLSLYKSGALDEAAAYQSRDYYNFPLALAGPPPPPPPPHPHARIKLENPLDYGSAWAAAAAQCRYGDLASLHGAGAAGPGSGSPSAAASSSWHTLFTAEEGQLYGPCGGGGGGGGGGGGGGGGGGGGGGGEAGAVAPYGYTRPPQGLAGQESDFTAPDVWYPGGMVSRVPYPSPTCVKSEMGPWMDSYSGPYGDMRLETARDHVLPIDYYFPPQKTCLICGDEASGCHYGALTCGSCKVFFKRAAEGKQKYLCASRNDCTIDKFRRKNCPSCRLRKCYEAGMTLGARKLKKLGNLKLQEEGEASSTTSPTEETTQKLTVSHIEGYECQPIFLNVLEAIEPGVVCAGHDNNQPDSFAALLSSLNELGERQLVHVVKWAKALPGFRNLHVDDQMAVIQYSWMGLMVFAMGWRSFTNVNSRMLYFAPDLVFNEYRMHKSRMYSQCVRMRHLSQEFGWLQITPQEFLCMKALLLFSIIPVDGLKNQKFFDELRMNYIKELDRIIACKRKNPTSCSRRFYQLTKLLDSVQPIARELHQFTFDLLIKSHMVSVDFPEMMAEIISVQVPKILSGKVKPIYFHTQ

[1] = system: E. coli strains presenting high levels of resistance; experiment: Bacterial growth on E. coli strains presenting high levels of resistance; format: cell-based, Escherichia coli; design: key to Effects (0 < 1 < 2 < 3): 0 = no effect; 1 = pure only; 2 = several concs; 3 = strong at each; key to Δ DO: change in optical density measured at 600 nm; settings: for Effects (0 < 1 < 2 < 3): molecules at 1, 0.5 and 0.1 mg/ml, triclosan at 0.1 mg/ml
Protocol: as §1, §2
(§5) Compounds of the invention were tested on 4 strains of E. coli, 3 strains of K. pneumoniae and 4 strains of S. aureus with the resistance profiles below.

Staphylococcus aureus = experiment: Bacterial growth screening on wild-type phenotype strain, S. aureus; format: cell-based
Protocol: as §1, §2, §3, §4

Klebsiella pneumoniae = experiment: Bacterial growth screening on wild-type phenotype strain, K. pneumoniae; format: cell-based
Protocol: as §1, §2, §3, §4

[2] = system: S. aureus strains presenting high levels of resistance; experiment: Bacterial growth on S. aureus strains presenting high levels of resistance; format: cell-based, Staphylococcus aureus; design: key to Effects (0 < 1 < 2 < 3): 0 = no effect; 1 = pure only; 2 = several concs; 3 = strong at each; key to Δ DO: change in optical density measured at 600 nm; settings: for Effects (0 < 1 < 2 < 3): molecules at 1, 0.5 and 0.1 mg/ml, triclosan at 0.1 mg/ml
Protocol: as §1, §2, §5

[3] = system: KB cells (epidermoid carcinoma); experiment: In vitro cytotoxicity, cell proliferation test (MTS) on KB cells; format: cell-based; settings: Homo sapiens, KB cells, triplicate, 72 hours of exposure, with respect to DMSO control, read-out: percentage of inhibition of cell growth
Protocol: The human cell strain KB (epidermoid carcinoma) was obtained from the NCI (National Cancer Institute) and cultivated in the D-MEM medium added with 10% of foetal bovine serum (Invitrogen) in the presence of penicillin, streptomycin and fungizone in flasks of […] under CO2 at 5%. The cells were deposited on tissue culture microplates with 96 wells and a density of 650 cells/well in 200 μl of medium and treated 24 hours later with compounds of the invention dissolved in DMSO at concentrations going from 0.5 nM to 10 μM using a Biomek 3000 (Beckman-Coulter) automaton. The controls received the same volume of DMSO (1% of final volume). After 72 hours of exposure, the MTS reagent (Celltiter 96Aqueous One solution, Promega) was added and incubated for 3 hours at 37° C.: the absorbance was measured at 490 nm and the results of inhibition of the cell proliferation were calculated according to the ratio [(1−(OD490treated/OD490control))×100].
Results: Cytotoxicity at 10^−5 and 10^−6M on Triplicate KB Cells, Measured after 72 Hours of Exposure.
The percentage of inhibition of cell growth with respect to the cells receiving the same quantity of DMSO is outlined in the table below.

[4] = system: Micrococcus luteus reference strain; experiment: Bacterial growth (optical density at 600 nm) on Micrococcus luteus reference strain; format: cell-based; design: key: 0 = no effect, 1 = pure only, 2 = several concentrations, 3 = strong at all; settings: in DMSO diluted in PBS, compared with triclosan
Protocol: as §1, §2
The molecules are put in a solution in DMSO and diluted in PBS.

[5] = system: Streptococcus equi subsp zooepidemicus; experiment: Bacterial growth screening on wild-type phenotype strain, S. zooepidemicus; format: cell-based
Protocol: as §1, §2, §3, §4

COc1cc(O)c(Br)c(Cl)c1F [sr7615]
Effect level, E. coli (Escherichia coli): 3
inhibition at 10 µM (androgenic receptors): 3.1%
Δ DO ([1]; E. coli Strain 1, 0.1 mg/ml): 0.047
Δ DO ([1]; E. coli Strain 1, 0.5 mg/ml): 0.777
Δ DO ([1]; E. coli Strain 1, 1 mg/ml): 0.896
Effects (0 < 1 < 2 < 3) ([1]; E. coli Strain 1): 2
Δ DO ([1]; E. coli Strain 2, 0.1 mg/ml): 0.080
Δ DO ([1]; E. coli Strain 2, 0.5 mg/ml): 0.886
Δ DO ([1]; E. coli Strain 2, 1 mg/ml): 1.082
Effects (0 < 1 < 2 < 3) ([1]; E. coli Strain 2): 2
Δ DO ([1]; E. coli Strain 3, 0.1 mg/ml): 0.029
Δ DO ([1]; E. coli Strain 3, 0.5 mg/ml): 0.526
Δ DO ([1]; E. coli Strain 3, 1 mg/ml): 0.882
Effects (0 < 1 < 2 < 3) ([1]; E. coli Strain 3): 2
Δ DO ([1]; E. coli Strain 4, 0.1 mg/ml): 0.253
Δ DO ([1]; E. coli Strain 4, 0.5 mg/ml): 0.809
Δ DO ([1]; E. coli Strain 4, 1 mg/ml): 0.945
Effects (0 < 1 < 2 < 3) ([1]; E. coli Strain 4): 3
Effect level, S. aureus (Staphylococcus aureus): 3
Effect level, K. pneumoniae (Klebsiella pneumoniae): 2
Δ DO ([2]; S. aureus Strain 1, 0.1 mg/ml): 0.250
Δ DO ([2]; S. aureus Strain 1, 0.5 mg/ml): 0.434
Δ DO ([2]; S. aureus Strain 1, 1 mg/ml): 0.428
Effects (0 < 1 < 2 < 3) ([2]; S. aureus Strain 1): 3
Δ DO ([2]; S. aureus Strain 2, 0.1 mg/ml): 0.308
Δ DO ([2]; S. aureus Strain 2, 0.5 mg/ml): 0.412
Δ DO ([2]; S. aureus Strain 2, 1 mg/ml): 0.382
Effects (0 < 1 < 2 < 3) ([2]; S. aureus Strain 2): 3
Δ DO ([2]; S. aureus Strain 3, 0.1 mg/ml): 0.310
Δ DO ([2]; S. aureus Strain 3, 0.5 mg/ml): 0.482
Δ DO ([2]; S. aureus Strain 3, 1 mg/ml): 0.445
Effects (0 < 1 < 2 < 3) ([2]; S. aureus Strain 3): 3
Δ DO ([2]; S. aureus Strain 4, 0.1 mg/ml): 0.351
Δ DO ([2]; S. aureus Strain 4, 0.5 mg/ml): 0.450
Δ DO ([2]; S. aureus Strain 4, 1 mg/ml): 0.418
Effects (0 < 1 < 2 < 3) ([2]; S. aureus Strain 4): 3
inhibition at 10 µM ([3]; 10^−5 M): 0%
inhibition at 1 µM ([3]; 10^−6 M): 0%
Effect level [4]: 3
Effect level, S. zooepidemicus [5]: 3
